ChEMBL document CHEMBL1909514, “Imidazo[2,1-b]thiazole guanylhydrazones as RSK2 inhibitors” (Eur J Med Chem, 2011)

Legend:
T47D = assay: Growth inhibition of human T47D cells after 48 hrs by SRB assay; assay type: functional
MCF7 = assay: Growth inhibition of human MCF7 cells after 48 hrs by SRB assay; assay type: functional; details: MCF7, 48 h
UO-31 = assay: Growth inhibition of human UO31 cells after 48 hrs by SRB assay; assay type: functional; details: UO-31, 48 h
SN12C = assay: Growth inhibition of human SN12C cells after 48 hrs by SRB assay; assay type: functional
ACHN = assay: Growth inhibition of human ACHN cells after 48 hrs by SRB assay; assay type: functional
A498 = assay: Growth inhibition of human A498 cells after 48 hrs by SRB assay; assay type: functional; details: A498, 48 h
786-0 = assay: Growth inhibition of human 786-0 cells after 48 hrs by SRB assay; assay type: functional; details: 786-0, 48 h
OVCAR-5 = assay: Growth inhibition of human OVCAR5 cells after 48 hrs by SRB assay; assay type: functional; details: OVCAR-5, 48 h
[1] = Growth inhibition of human OVCAR1 cells after 48 hrs by SRB assay; assay type: functional; details: OVCAR1, 48 h
SK-MEL-5 = assay: Growth inhibition of human SK-MEL-5 cells after 48 hrs by SRB assay; assay type: functional; details: SK-MEL-5, 48 h
M14 = assay: Growth inhibition of human M14 cells after 48 hrs by SRB assay; assay type: functional; details: M14, 48 h
MDA-MB-435 = assay: Growth inhibition of human MDA-MB-435 cells after 48 hrs by SRB assay; assay type: functional; details: MDA-MB-435, 48 h
U-251 = assay: Growth inhibition of human U251 cells after 48 hrs by SRB assay; assay type: functional; details: U-251, 48 h
SNB-19 = assay: Growth inhibition of human SNB19 cells after 48 hrs by SRB assay; assay type: functional; details: SNB-19, 48 h
SF-539 = assay: Growth inhibition of human SF539 cells after 48 hrs by SRB assay; assay type: functional; details: SF-539, 48 h
SW-620 = assay: Growth inhibition of human SW620 cells after 48 hrs by SRB assay; assay type: functional; details: SW-620, 48 h
HT-29 = assay: Growth inhibition of human HT-29 cells after 48 hrs by SRB assay; assay type: functional; details: HT-29, 48 h
KM12 = assay: Growth inhibition of human KM12 cells after 48 hrs by SRB assay; assay type: functional; details: KM12, 48 h
HCT-15 = assay: Growth inhibition of human HCT15 cells after 48 hrs by SRB assay; assay type: functional; details: HCT-15, 48 h
HCC 2998 = assay: Growth inhibition of human HCC2998 cells after 48 hrs by SRB assay; assay type: functional; details: HCC 2998, 48 h
HCT-116 = assay: Growth inhibition of human HCT116 cells after 48 hrs by SRB assay; assay type: functional; details: HCT-116, 48 h
COLO 205 = assay: Growth inhibition of human COLO205 cells after 48 hrs by SRB assay; assay type: functional; details: COLO 205, 48 h
NCI-H322M = assay: Growth inhibition of human NCI-H322M cells after 48 hrs by SRB assay; assay type: functional
NCI-H226 = assay: Growth inhibition of human NCI-H226 cells after 48 hrs by SRB assay; assay type: functional; details: NCI-H226, 48 h
HOP-62 = assay: Growth inhibition of human HOP62 cells after 48 hrs by SRB assay; assay type: functional; details: HOP-62, 48 h
RPMI-8226 = assay: Growth inhibition of human RPMI8226 cells after 48 hrs by SRB assay; assay type: functional; details: RPMI-8226, 48 h
CCRF-CEM = assay: Growth inhibition of human CCRF-CEM cells after 48 hrs by SRB assay; assay type: functional
HL-60(TB) = assay: Growth inhibition of human HL-60(TB) cells after 48 hrs by SRB assay; assay type: functional; details: HL-60, 48 h
[2] = biological target: T1, Serine/threonine-protein kinase Chk1 (Homo sapiens, UniProt O14757)
T1 sequence (O14757 whole entry): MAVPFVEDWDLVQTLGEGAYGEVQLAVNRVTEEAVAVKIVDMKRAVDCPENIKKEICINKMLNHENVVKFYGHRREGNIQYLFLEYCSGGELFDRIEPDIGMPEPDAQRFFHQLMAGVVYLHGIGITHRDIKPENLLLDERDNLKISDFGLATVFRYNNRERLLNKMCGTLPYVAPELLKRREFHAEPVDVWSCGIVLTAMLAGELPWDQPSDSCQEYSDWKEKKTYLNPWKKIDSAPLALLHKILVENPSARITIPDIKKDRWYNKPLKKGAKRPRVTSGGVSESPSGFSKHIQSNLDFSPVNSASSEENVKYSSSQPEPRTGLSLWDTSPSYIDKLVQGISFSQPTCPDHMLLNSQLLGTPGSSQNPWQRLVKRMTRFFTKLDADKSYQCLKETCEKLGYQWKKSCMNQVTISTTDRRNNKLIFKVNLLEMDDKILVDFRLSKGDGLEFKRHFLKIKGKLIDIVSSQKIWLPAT
Description: Inhibition of CHK1 assessed as inhibition of substrate phosphorylation using fluorescent peptide substrate by microplate reader assay

[3] = biological target: Ribosomal protein S6 kinase alpha-3 (Homo sapiens, UniProt P51812)
Description: Inhibition of RSK2 assessed as inhibition of substrate phosphorylation using fluorescent peptide substrate by microplate reader assay

[4] = biological target: ALK tyrosine kinase receptor (Homo sapiens, UniProt Q9UM73)
[5] = read-out: pLC50 (the source's name) (converted)

Chain of Ribosomal protein S6 kinase alpha-3 (P51812 whole entry): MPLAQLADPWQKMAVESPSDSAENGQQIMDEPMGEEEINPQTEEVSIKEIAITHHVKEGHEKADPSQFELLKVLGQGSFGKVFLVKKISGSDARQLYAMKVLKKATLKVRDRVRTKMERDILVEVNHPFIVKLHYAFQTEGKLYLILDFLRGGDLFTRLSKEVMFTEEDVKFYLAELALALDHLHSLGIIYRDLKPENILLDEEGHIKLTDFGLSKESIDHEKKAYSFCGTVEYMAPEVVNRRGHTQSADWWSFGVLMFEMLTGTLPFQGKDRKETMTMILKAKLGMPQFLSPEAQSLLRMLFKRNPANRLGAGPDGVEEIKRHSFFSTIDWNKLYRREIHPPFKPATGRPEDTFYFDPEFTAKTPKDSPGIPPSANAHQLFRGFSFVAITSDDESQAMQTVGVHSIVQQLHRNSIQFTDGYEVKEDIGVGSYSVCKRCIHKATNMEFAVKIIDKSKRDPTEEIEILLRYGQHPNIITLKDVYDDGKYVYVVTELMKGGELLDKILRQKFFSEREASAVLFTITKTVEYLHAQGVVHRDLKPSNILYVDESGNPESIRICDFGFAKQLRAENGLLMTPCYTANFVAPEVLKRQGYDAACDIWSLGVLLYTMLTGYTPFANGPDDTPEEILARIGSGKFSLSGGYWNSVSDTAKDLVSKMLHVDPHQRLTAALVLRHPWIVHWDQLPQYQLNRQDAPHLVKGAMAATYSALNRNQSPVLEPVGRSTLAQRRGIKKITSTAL
Chain of ALK tyrosine kinase receptor (Q9UM73 whole entry): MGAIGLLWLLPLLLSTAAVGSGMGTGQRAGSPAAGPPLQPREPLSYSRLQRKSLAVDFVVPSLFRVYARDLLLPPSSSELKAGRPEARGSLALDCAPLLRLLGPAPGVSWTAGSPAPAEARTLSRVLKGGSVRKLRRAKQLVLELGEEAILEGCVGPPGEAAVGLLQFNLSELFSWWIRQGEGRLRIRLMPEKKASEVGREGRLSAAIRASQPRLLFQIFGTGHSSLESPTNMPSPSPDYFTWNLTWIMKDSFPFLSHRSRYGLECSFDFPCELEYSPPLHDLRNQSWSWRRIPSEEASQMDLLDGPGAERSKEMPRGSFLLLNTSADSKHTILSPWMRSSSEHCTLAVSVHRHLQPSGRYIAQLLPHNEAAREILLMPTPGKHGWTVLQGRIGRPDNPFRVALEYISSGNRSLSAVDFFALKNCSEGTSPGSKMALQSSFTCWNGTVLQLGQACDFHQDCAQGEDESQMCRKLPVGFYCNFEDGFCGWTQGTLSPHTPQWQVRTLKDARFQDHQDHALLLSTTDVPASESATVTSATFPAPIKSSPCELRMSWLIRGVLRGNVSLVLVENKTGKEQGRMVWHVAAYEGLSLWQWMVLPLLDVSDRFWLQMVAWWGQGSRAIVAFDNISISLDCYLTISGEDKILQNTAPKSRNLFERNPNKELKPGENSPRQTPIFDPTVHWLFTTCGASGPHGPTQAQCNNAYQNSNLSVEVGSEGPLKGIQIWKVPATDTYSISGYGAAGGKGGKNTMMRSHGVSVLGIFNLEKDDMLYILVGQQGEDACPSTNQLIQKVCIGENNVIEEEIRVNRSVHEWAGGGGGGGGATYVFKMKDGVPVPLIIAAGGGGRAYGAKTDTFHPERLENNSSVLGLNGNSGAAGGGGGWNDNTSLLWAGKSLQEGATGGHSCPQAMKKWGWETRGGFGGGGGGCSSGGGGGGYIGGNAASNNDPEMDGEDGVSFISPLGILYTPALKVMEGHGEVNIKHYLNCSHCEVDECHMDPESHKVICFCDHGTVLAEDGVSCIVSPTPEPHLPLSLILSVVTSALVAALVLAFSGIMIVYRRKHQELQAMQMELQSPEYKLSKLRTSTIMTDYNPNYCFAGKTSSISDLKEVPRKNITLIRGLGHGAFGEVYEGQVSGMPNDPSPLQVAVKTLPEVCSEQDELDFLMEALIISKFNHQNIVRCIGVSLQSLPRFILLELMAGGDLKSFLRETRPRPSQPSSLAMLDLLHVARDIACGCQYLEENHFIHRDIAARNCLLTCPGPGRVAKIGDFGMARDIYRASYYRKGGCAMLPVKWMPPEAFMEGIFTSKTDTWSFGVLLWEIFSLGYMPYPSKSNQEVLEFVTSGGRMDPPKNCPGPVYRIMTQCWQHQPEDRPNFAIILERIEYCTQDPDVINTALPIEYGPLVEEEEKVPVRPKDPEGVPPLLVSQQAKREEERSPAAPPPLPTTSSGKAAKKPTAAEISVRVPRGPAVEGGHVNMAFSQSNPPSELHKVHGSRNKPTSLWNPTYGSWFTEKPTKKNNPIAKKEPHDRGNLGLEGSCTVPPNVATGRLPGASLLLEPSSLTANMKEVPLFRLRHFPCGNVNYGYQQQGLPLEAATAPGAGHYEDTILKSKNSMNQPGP

**Q.** What does the source list for `N=C(N)N/N=C\c1c(-c2ccc([N+](=O)[O-])cc2)nc2sc(Br)cn12`?
**A.** GI50 (T47D): 0.17 µM; TGI (T47D; read-out: pTGI (converted)): 3.63 µM; GI50 (MCF7): 0.162 µM; TGI (MCF7; read-out: pTGI (converted)): 0.324 µM; GI50 (UO-31): 0.174 µM; CC50 (UO-31; [5]): 0.676 µM; TGI (UO-31; read-out: pTGI (converted)): 0.355 µM; GI50 (SN12C): 0.617 µM; CC50 (SN12C; [5]): 5.89 µM; TGI (SN12C; read-out: pTGI (converted)): 2.82 µM; GI50 (ACHN): 0.295 µM; CC50 (ACHN; [5]): 5.37 µM; TGI (ACHN; read-out: pTGI (converted)): 0.871 µM; GI50 (A498): 1.58 µM; CC50 (A498; [5]): 6.03 µM; TGI (A498; read-out: pTGI (converted)): 3.09 µM; GI50 (786-0): 0.174 µM; CC50 (786-0; [5]): 0.575 µM; TGI (786-0; read-out: pTGI (converted)): 0.316 µM; GI50 (OVCAR-5): 0.186 µM; CC50 (OVCAR-5; [5]): 0.851 µM; TGI (OVCAR-5; read-out: pTGI (converted)): 0.398 µM; GI50 [1]: 0.186 µM; CC50 [1, 5]: 0.661 µM; TGI ([1]; read-out: pTGI (converted)): 0.347 µM; GI50 (SK-MEL-5): 0.49 µM; CC50 (SK-MEL-5; [5]): 5.37 µM; TGI (SK-MEL-5; read-out: pTGI (converted)): 1.95 µM; GI50 (M14): 0.229 µM; CC50 (M14; [5]): 1.66 µM; TGI (M14; read-out: pTGI (converted)): 0.537 µM; GI50 (MDA-MB-435): 0.251 µM; CC50 (MDA-MB-435; [5]): 5.37 µM; TGI (MDA-MB-435; read-out: pTGI (converted)): 7.41 µM; GI50 (U-251): 0.195 µM; CC50 (U-251; [5]): > 100 µM; GI50 (SNB-19): 0.38 µM; CC50 (SNB-19; [5]): 5.01 µM; TGI (SNB-19; read-out: pTGI (converted)): 4.79 µM; GI50 (SF-539): 0.372 µM; CC50 (SF-539; [5]): 3.72 µM; TGI (SF-539; read-out: pTGI (converted)): 1.26 µM; GI50 (SW-620): 0.182 µM; CC50 (SW-620; [5]): 0.891 µM; TGI (SW-620; read-out: pTGI (converted)): 0.407 µM; GI50 (HT-29): 0.178 µM; CC50 (HT-29; [5]): 0.646 µM; TGI (HT-29; read-out: pTGI (converted)): 0.339 µM; GI50 (KM12): 0.2 µM; CC50 (KM12; [5]): 0.759 µM; TGI (KM12; read-out: pTGI (converted)): 0.389 µM; GI50 (HCT-15): 0.302 µM; CC50 (HCT-15; [5]): > 100 µM; TGI (HCT-15; read-out: pTGI (converted)): 26.9 µM; GI50 (HCC 2998): 0.234 µM; CC50 (HCC 2998; [5]): 2.34 µM; TGI (HCC 2998; read-out: pTGI (converted)): 0.646 µM; GI50 (HCT-116): 0.166 µM; CC50 (HCT-116; [5]): 0.832 µM; TGI (HCT-116; read-out: pTGI (converted)): 0.302 µM; GI50 (COLO 205): 0.166 µM; CC50 (COLO 205; [5]): 0.646 µM; TGI (COLO 205; read-out: pTGI (converted)): 0.331 µM; GI50 (NCI-H322M): 0.309 µM; CC50 (NCI-H322M; [5]): 3.98 µM; TGI (NCI-H322M; read-out: pTGI (converted)): 4.17 µM; GI50 (NCI-H226): 1.86 µM; CC50 (NCI-H226; [5]): > 100 µM; TGI (NCI-H226; read-out: pTGI (converted)): 4.47 µM; GI50 (HOP-62): 0.191 µM; CC50 (HOP-62; [5]): 0.851 µM; TGI (HOP-62; read-out: pTGI (converted)): 3.98 µM; GI50 (RPMI-8226): 0.178 µM; TGI (RPMI-8226; read-out: pTGI (converted)): 0.417 µM; GI50 (CCRF-CEM): 0.102 µM; CC50 (CCRF-CEM; [5]): > 100 µM; GI50 (HL-60(TB)): 0.219 µM; IC50 [2]: > 100 µM; IC50 [3]: 1.23 µM; IC50 [4]: > 20 µM
